These results are taken from ChEMBL document CHEMBL5512620, “Design and synthesis of forsythin derivatives as anti-inflammatory agents for acute lung injury” (Eur J Med Chem, 2024).

This series deals with RAW264.7. Briefly: Cytotoxicity activity mouse RAW264.7 cells assessed as effect on cell viability at 25 uM incubated for 24 hrs by MTT assay. It counts as toxicity, cell-based. The following applies: raw264.7, 24 h. On the technique in general: Tetrazolium dyes change colour on reduction, which living cells bring about.

As for `COc1ccc([C@@H]2OC[C@H]3[C@@H]2CO[C@@H]3c2ccc(O[C@H]3O[C@H](COC(=O)[C@H](CCSC)NC(=O)OC(C)(C)C)[C@@H](O)[C@H](O)[C@H]3O)c(OC)c2)cc1OC`, the Activity entry was “Non-Toxic”.

For `COc1ccc(-n2cc(C(=O)OC[C@H]3O[C@H](Oc4ccc([C@H]5OC[C@H]6[C@@H]5CO[C@H]6c5ccc(OC)c(OC)c5)cc4OC)[C@H](O)[C@@H](O)[C@@H]3O)nn2)cc1`, the Activity entry was “Non-Toxic”.

Regarding `COc1ccc([C@@H]2OC[C@H]3[C@@H]2CO[C@@H]3c2ccc(O[C@H]3O[C@H](COC(=O)[C@H](CC(C)C)NC(=O)OC(C)(C)C)[C@@H](O)[C@H](O)[C@H]3O)c(OC)c2)cc1OC`, the Activity entry was “Non-Toxic”.

Consider `COc1ccc([C@@H]2OC[C@H]3[C@@H]2CO[C@@H]3c2ccc(O[C@H]3O[C@H](COC(=O)/C=C/c4ccccc4)[C@@H](O)[C@H](O)[C@H]3O)c(OC)c2)cc1OC`, for which the Activity entry was “Non-Toxic”.

`COc1ccc([C@@H]2OC[C@H]3[C@@H]2CO[C@@H]3c2ccc(O[C@H]3O[C@H](COC(=O)CNC(=O)OC(C)(C)C)[C@@H](O)[C@H](O)[C@H]3O)c(OC)c2)cc1OC`: the Activity result was “Non-Toxic”.

As to `COc1ccc(/C=C/C(=O)OC[C@H]2O[C@H](Oc3ccc([C@H]4OC[C@H]5[C@@H]4CO[C@H]5c4ccc(OC)c(OC)c4)cc3OC)[C@H](O)[C@@H](O)[C@@H]2O)cc1`, the Activity result is given as “Non-Toxic”.

In the case of `COc1cccc(C(=O)OC[C@H]2O[C@H](Oc3ccc([C@H]4OC[C@H]5[C@@H]4CO[C@H]5c4ccc(OC)c(OC)c4)cc3OC)[C@H](O)[C@@H](O)[C@@H]2O)c1`, the Activity result is on record as “Non-Toxic”.

As to `COc1ccc([C@@H]2OC[C@H]3[C@@H]2CO[C@@H]3c2ccc(O[C@H]3O[C@H](COC(=O)c4cn(-c5ccc(F)cc5)nn4)[C@@H](O)[C@H](O)[C@H]3O)c(OC)c2)cc1OC`, the Activity entry is reported as “Non-Toxic”.
